Reference: paper PMC9736374, “Design, Synthesis and Antimicrobial Properties of New Tetracyclic Quinobenzothiazine Derivatives” (International Journal of Molecular Sciences, 2022)

system: methicillin-resistant S. aureus 63718 (MRSA3); assay: MBC, agar aliquot subculture method; assay type: cell-based; conditions: Staphylococcus aureus; MRSA3 = 63718

SMILES	MBC [µM]
CCCOc1ccc2c(c1)Nc1c(c[n+](C)c3ccccc13)S2 [Compound 6b, 10-propoxy-5-methyl-12H-quino[3,4-b][1,4]benzothiazinium chloride]	22.3
C#CCOc1ccc2c(c1)Nc1c(c[n+](C)c3ccccc13)S2 [Compound 6h, 10-propargyloxy-5-methyl-12H-quino[3,4-b][1,4]benzothiazinium chloride]	45.1

system: vancomycin-resistant E. faecalis VRE 725B (VRE3); assay: MIC, microtitration broth method; assay type: cell-based, Enterococcus faecalis; conditions: VRE3 = VRE 725B; 24 h, 37 °C

MIC [µM]	SMILES
89.1	CCCOc1ccc2c(c1)Nc1c(c[n+](C)c3ccccc13)S2 [Compound 6b, 10-propoxy-5-methyl-12H-quino[3,4-b][1,4]benzothiazinium chloride]
22.5	C#CCOc1ccc2c(c1)Nc1c(c[n+](C)c3ccccc13)S2 [Compound 6h, 10-propargyloxy-5-methyl-12H-quino[3,4-b][1,4]benzothiazinium chloride]

system: Staphylococcus aureus ATCC 29213; assay: MIC, microtitration broth method; assay type: cell-based; conditions: ATCC29213; SA = Staphylococcus aureus ATCC 29213; 24 h, 37 °C

MIC [µM]	SMILES
22.3	CCCOc1ccc2c(c1)Nc1c(c[n+](C)c3ccccc13)S2 [Compound 6b, 10-propoxy-5-methyl-12H-quino[3,4-b][1,4]benzothiazinium chloride]
45.1	C#CCOc1ccc2c(c1)Nc1c(c[n+](C)c3ccccc13)S2 [Compound 6h, 10-propargyloxy-5-methyl-12H-quino[3,4-b][1,4]benzothiazinium chloride]

system: normal human dermal fibroblasts (NHDF); assay: In vitro cell viability, WST-1 assay; assay type: cell-based; conditions: 72 h
Method: Compounds were evaluated for their antiproliferative activity using NHDF (normal human dermal fibroblasts, ATCC, Manassas, VA, USA). The cultured cells were kept at 37 °C and 5% CO2. The cells were seeded (1 × 10^4 cells/well/100 μL DMEM supplemented with 10% FCS and streptomycin/penicillin) into 96-well plates (Corning Inc., Corning, NY, USA). Cells were counted using a hemocytometer (Burker chamber) and phase contrast Olympus IX50 microscope equipped with Sony SSC-DC58 AP camera and Olympus DP10 digital camera. The cell viability of the compounds was determined using the Cell Proliferation Reagent WST-1 assay (Roche Molecular Biochemicals, Mannheim, Germany). The examined cells were exposed to the tested compounds (1 mg/mL DMSO stock) for 72 h at various concentrations (0.1–100 μg/mL). The control was included in order to eliminate the DMSO effect at the concentration used. Cell cultures were incubated with WST-1 (10 μL) for 1 h. The absorbance of the samples was measured against a background control at 450 nm using a microplate reader with a reference wavelength at 600 nm. The obtained results are expressed as means of at least two independent experiments performed in triplicate.

SMILES	IC50 [µM]
CCCOc1ccc2c(c1)Nc1c(c[n+](C)c3ccccc13)S2 [Compound 6b, 10-propoxy-5-methyl-12H-quino[3,4-b][1,4]benzothiazinium chloride]	65.5
C#CCOc1ccc2c(c1)Nc1c(c[n+](C)c3ccccc13)S2 [Compound 6h, 10-propargyloxy-5-methyl-12H-quino[3,4-b][1,4]benzothiazinium chloride]	> 100

system: Mycobacterium marinum CAMP 5644; assay: In vitro antimycobacterial MIC, broth dilution micro-method; assay type: cell-based; conditions: CAMP5644, 504 h; MM = Mycobacterium marinum CAMP 5644; 21 days, 28 °C

MIC [µM]	SMILES
22.3	CCCOc1ccc2c(c1)Nc1c(c[n+](C)c3ccccc13)S2 [Compound 6b, 10-propoxy-5-methyl-12H-quino[3,4-b][1,4]benzothiazinium chloride]
22.5	C#CCOc1ccc2c(c1)Nc1c(c[n+](C)c3ccccc13)S2 [Compound 6h, 10-propargyloxy-5-methyl-12H-quino[3,4-b][1,4]benzothiazinium chloride]

system: methicillin-resistant S. aureus SA 3202 (MRSA1); assay: MIC, microtitration broth method; assay type: cell-based; conditions: Staphylococcus aureus; MRSA1 = SA 3202; 24 h, 37 °C

MIC [µM]	SMILES
44.6	CCCOc1ccc2c(c1)Nc1c(c[n+](C)c3ccccc13)S2 [Compound 6b, 10-propoxy-5-methyl-12H-quino[3,4-b][1,4]benzothiazinium chloride]
90.1	C#CCOc1ccc2c(c1)Nc1c(c[n+](C)c3ccccc13)S2 [Compound 6h, 10-propargyloxy-5-methyl-12H-quino[3,4-b][1,4]benzothiazinium chloride]

system: methicillin-resistant S. aureus SA 630 (MRSA2); assay: MBC, agar aliquot subculture method; assay type: cell-based; conditions: Staphylococcus aureus; MRSA2 = SA 630

SMILES	MBC [µM]
CCCOc1ccc2c(c1)Nc1c(c[n+](C)c3ccccc13)S2 [Compound 6b, 10-propoxy-5-methyl-12H-quino[3,4-b][1,4]benzothiazinium chloride]	44.6
C#CCOc1ccc2c(c1)Nc1c(c[n+](C)c3ccccc13)S2 [Compound 6h, 10-propargyloxy-5-methyl-12H-quino[3,4-b][1,4]benzothiazinium chloride]	90.1

system: methicillin-resistant S. aureus SA 3202 (MRSA1); assay: MBC, agar aliquot subculture method; assay type: cell-based; conditions: Staphylococcus aureus; MRSA1 = SA 3202

SMILES	MBC [µM]
CCCOc1ccc2c(c1)Nc1c(c[n+](C)c3ccccc13)S2 [Compound 6b, 10-propoxy-5-methyl-12H-quino[3,4-b][1,4]benzothiazinium chloride]	44.6
C#CCOc1ccc2c(c1)Nc1c(c[n+](C)c3ccccc13)S2 [Compound 6h, 10-propargyloxy-5-methyl-12H-quino[3,4-b][1,4]benzothiazinium chloride]	90.1

system: vancomycin-resistant E. faecalis VRE 368 (VRE2); assay: MIC, microtitration broth method; assay type: cell-based, Enterococcus faecalis; conditions: VRE2 = VRE 368; 24 h, 37 °C

MIC [µM]	SMILES
178	CCCOc1ccc2c(c1)Nc1c(c[n+](C)c3ccccc13)S2 [Compound 6b, 10-propoxy-5-methyl-12H-quino[3,4-b][1,4]benzothiazinium chloride]
45.1	C#CCOc1ccc2c(c1)Nc1c(c[n+](C)c3ccccc13)S2 [Compound 6h, 10-propargyloxy-5-methyl-12H-quino[3,4-b][1,4]benzothiazinium chloride]

system: not listed separately; assay: Lipophilicity by RP-TLC; assay type: physicochemical; conditions: Tris buffer pH 7.4/acetone, read-out: logPTLC
Method: The lipophilicity parameters were determined experimentally using reverse phase thin-layer chromatography (RP-TLC). Chromatograms were prepared on RP-18F254s plates (1.05559.0001, Merck, Germany) precoated with nonpolar silicone oil. Plates were developed in glass chromatography chambers previously saturated with vapor of mobile phase. The mobile phase was composed of 0.2M Tris buffer (pH = 7.4) and acetone in different concentrations, i.e., 50%, 60%, 70%, 80 and 90%. The chromatograms were visualised in UV light (λ = 254 nm). Determination of the RF coefficient was carried out twice for all compounds; in all cases, acetone concentrations used. The final value of RF is the mean of the two measurements. The obtained RF coefficient was used to calculate the value of the RM parameter according to the equation: RM = log [(1/RF) − 1]. By extrapolating RM values to zero acetone concentration, a relative RM0 lipophilicity parameter was obtained, according to the equation: RM = RM0 + bC, where b is slope and C is concentration of acetone in mobile phase. Based on RM0 and the calibration curve, the values of logPTLC for compounds 6a–l were determined. The calibration curve was calculated using the relationship between RM0 of the standard molecules (acetanilide, p-kresol, p-bromoacetophenone, benzophenone, anthracene) and the corresponding logP parameters specified by the extraction method, respectively. RM0 parameters of the standard molecules and quinobenzothiazine derivatives 6a–l were determined in the same empirical conditions.

chromatographic logP	SMILES
1.99	CCCOc1ccc2c(c1)Nc1c(c[n+](C)c3ccccc13)S2 [Compound 6b, 10-propoxy-5-methyl-12H-quino[3,4-b][1,4]benzothiazinium chloride]
1.74	C#CCOc1ccc2c(c1)Nc1c(c[n+](C)c3ccccc13)S2 [Compound 6h, 10-propargyloxy-5-methyl-12H-quino[3,4-b][1,4]benzothiazinium chloride]

system: Enterococcus faecalis ATCC 29212; assay: MBC, agar aliquot subculture method; assay type: cell-based; conditions: ATCC29212; EF = Enterococcus faecalis

SMILES	MBC [µM]
CCCOc1ccc2c(c1)Nc1c(c[n+](C)c3ccccc13)S2 [Compound 6b, 10-propoxy-5-methyl-12H-quino[3,4-b][1,4]benzothiazinium chloride]	89.1
C#CCOc1ccc2c(c1)Nc1c(c[n+](C)c3ccccc13)S2 [Compound 6h, 10-propargyloxy-5-methyl-12H-quino[3,4-b][1,4]benzothiazinium chloride]	45.1

system: Enterococcus faecalis ATCC 29212; assay: MIC, microtitration broth method; assay type: cell-based; conditions: ATCC29212; EF = Enterococcus faecalis; 24 h, 37 °C

MIC [µM]	SMILES
89.1	CCCOc1ccc2c(c1)Nc1c(c[n+](C)c3ccccc13)S2 [Compound 6b, 10-propoxy-5-methyl-12H-quino[3,4-b][1,4]benzothiazinium chloride]
45.1	C#CCOc1ccc2c(c1)Nc1c(c[n+](C)c3ccccc13)S2 [Compound 6h, 10-propargyloxy-5-methyl-12H-quino[3,4-b][1,4]benzothiazinium chloride]

system: vancomycin-resistant E. faecalis VRE 368 (VRE2); assay: MBC, agar aliquot subculture method; assay type: cell-based, Enterococcus faecalis; conditions: VRE2 = VRE 368

SMILES	MBC [µM]
CCCOc1ccc2c(c1)Nc1c(c[n+](C)c3ccccc13)S2 [Compound 6b, 10-propoxy-5-methyl-12H-quino[3,4-b][1,4]benzothiazinium chloride]	178
C#CCOc1ccc2c(c1)Nc1c(c[n+](C)c3ccccc13)S2 [Compound 6h, 10-propargyloxy-5-methyl-12H-quino[3,4-b][1,4]benzothiazinium chloride]	45.1

system: methicillin-resistant S. aureus SA 630 (MRSA2); assay: MIC, microtitration broth method; assay type: cell-based; conditions: Staphylococcus aureus; MRSA2 = SA 630; 24 h, 37 °C

MIC [µM]	SMILES
44.6	CCCOc1ccc2c(c1)Nc1c(c[n+](C)c3ccccc13)S2 [Compound 6b, 10-propoxy-5-methyl-12H-quino[3,4-b][1,4]benzothiazinium chloride]
90.1	C#CCOc1ccc2c(c1)Nc1c(c[n+](C)c3ccccc13)S2 [Compound 6h, 10-propargyloxy-5-methyl-12H-quino[3,4-b][1,4]benzothiazinium chloride]

system: Staphylococcus aureus ATCC 29213; assay: MBC, agar aliquot subculture method; assay type: cell-based; conditions: ATCC29213; SA = Staphylococcus aureus ATCC 29213

SMILES	MBC [µM]
CCCOc1ccc2c(c1)Nc1c(c[n+](C)c3ccccc13)S2 [Compound 6b, 10-propoxy-5-methyl-12H-quino[3,4-b][1,4]benzothiazinium chloride]	44.6
C#CCOc1ccc2c(c1)Nc1c(c[n+](C)c3ccccc13)S2 [Compound 6h, 10-propargyloxy-5-methyl-12H-quino[3,4-b][1,4]benzothiazinium chloride]	45.1

system: vancomycin-resistant E. faecalis VRE 342B (VRE1); assay: MBC, agar aliquot subculture method; assay type: cell-based, Enterococcus faecalis; conditions: VRE1 = VRE 342B

SMILES	MBC [µM]
CCCOc1ccc2c(c1)Nc1c(c[n+](C)c3ccccc13)S2 [Compound 6b, 10-propoxy-5-methyl-12H-quino[3,4-b][1,4]benzothiazinium chloride]	178
C#CCOc1ccc2c(c1)Nc1c(c[n+](C)c3ccccc13)S2 [Compound 6h, 10-propargyloxy-5-methyl-12H-quino[3,4-b][1,4]benzothiazinium chloride]	45.1

system: vancomycin-resistant E. faecalis VRE 342B (VRE1); assay: MIC, microtitration broth method; assay type: cell-based, Enterococcus faecalis; conditions: VRE1 = VRE 342B; 24 h, 37 °C

MIC [µM]	SMILES
178	CCCOc1ccc2c(c1)Nc1c(c[n+](C)c3ccccc13)S2 [Compound 6b, 10-propoxy-5-methyl-12H-quino[3,4-b][1,4]benzothiazinium chloride]
45.1	C#CCOc1ccc2c(c1)Nc1c(c[n+](C)c3ccccc13)S2 [Compound 6h, 10-propargyloxy-5-methyl-12H-quino[3,4-b][1,4]benzothiazinium chloride]

system: M. smegmatis ATCC 700084; assay: In vitro antimycobacterial MIC, broth dilution micro-method; assay type: cell-based, Mycobacterium smegmatis; conditions: Mycolicibacterium smegmatis, ATCC700084, 72 h; MS = M. smegmatis ATCC 700084; 3 days, 37 °C

MIC [µM]	SMILES
22.3	CCCOc1ccc2c(c1)Nc1c(c[n+](C)c3ccccc13)S2 [Compound 6b, 10-propoxy-5-methyl-12H-quino[3,4-b][1,4]benzothiazinium chloride]
22.5	C#CCOc1ccc2c(c1)Nc1c(c[n+](C)c3ccccc13)S2 [Compound 6h, 10-propargyloxy-5-methyl-12H-quino[3,4-b][1,4]benzothiazinium chloride]

system: methicillin-resistant S. aureus 63718 (MRSA3); assay: MIC, microtitration broth method; assay type: cell-based; conditions: Staphylococcus aureus; MRSA3 = 63718; 24 h, 37 °C

MIC [µM]	SMILES
22.3	CCCOc1ccc2c(c1)Nc1c(c[n+](C)c3ccccc13)S2 [Compound 6b, 10-propoxy-5-methyl-12H-quino[3,4-b][1,4]benzothiazinium chloride]
45.1	C#CCOc1ccc2c(c1)Nc1c(c[n+](C)c3ccccc13)S2 [Compound 6h, 10-propargyloxy-5-methyl-12H-quino[3,4-b][1,4]benzothiazinium chloride]

system: vancomycin-resistant E. faecalis VRE 725B (VRE3); assay: MBC, agar aliquot subculture method; assay type: cell-based, Enterococcus faecalis; conditions: VRE3 = VRE 725B

SMILES	MBC [µM]
CCCOc1ccc2c(c1)Nc1c(c[n+](C)c3ccccc13)S2 [Compound 6b, 10-propoxy-5-methyl-12H-quino[3,4-b][1,4]benzothiazinium chloride]	89.1
C#CCOc1ccc2c(c1)Nc1c(c[n+](C)c3ccccc13)S2 [Compound 6h, 10-propargyloxy-5-methyl-12H-quino[3,4-b][1,4]benzothiazinium chloride]	22.5
